Each structure is given as a SMILES string.

In one experiment the test system is RSV strain A2. Briefly: RSV antiviral activity, in vitro cytoprotection assay in Hep2 cells. Format: cell-based, Respiratory Syncytial Virus (RSV). The conditions noted are these: human respiratory syncytial virus, HEp-2, read-out: Percent inhibition at 0.5 μM. On the procedure: Antiviral activity against RSV was determined using an in vitro cytoprotection assay in Hep2 cells. […] The method used was similar to methods previously described in published literature (Chapman et al., Antimicrob Agents Chemother. 2007, 51(9):3346-53.)
Hep2 cells were obtained from ATCC (Manassas, Va.) and maintained in MEM media supplemented with 10% fetal bovine serum and penicillin/streptomycin. Cells were passaged twice a week and kept at subconfluent stage. Commercial stock of RSV strain A2 (Advanced Biotechnologies, Columbia, Md.) was titered before compound testing to determine the appropriate dilution of the virus stock that generated desirable cytopathic effect in Hep2 cells.
For antiviral tests, Hep2 cells were seeded into 96-well plates 24 hours before the assay at a density of 3,000 cells/well. On a separate 96 well plate, compounds to be tested were serially diluted in cell culture media. Eight concentrations in 3-fold serial dilution increments were prepared for each tested compound and 100 uL/well of each dilution was transferred in duplicate onto plates with seeded Hep2 cells. Subsequently, appropriate dilution of virus stock previously determined by titration was prepared in cell culture media and 100 uL/well was added to test plates containing cells and serially diluted compounds. Each plate included three wells of infected untreated cells and three wells of uninfected cells that served as 0% and 100% virus inhibition control, respectively. Following the infection with RSV, testing plates were incubated for 4 days in a tissue culture incubator. After the incubation, RSV-induced cytopathic effect was determined using a Cell TiterGlo reagent (Promega, Madison, Wis.) followed by a luminescence read-out. The percentage inhibition was calculated for each tested concentration relative to the 0% and 100% inhibition controls and the EC50 value for each compound was determined by non-linear regression as a concentration inhibiting the RSV-induced cytopathic effect by 50%. Ribavirin (purchased from Sigma, St. Louis, Mo.) was used as a positive control for antiviral activity.
Compounds were also tested for antiviral activity against RSV in Hep2 cells using a 384 well format. Compounds were diluted in DMSO using a 10-step serial dilution in 3-fold increments via automation in 4 adjacent replicates each. Eight compounds were tested per dilution plate. 0.4 uL of diluted compounds were then stamped via Biomek into 384-well plates (Nunc 142761 or 164730 w/lid 264616) containing 20 μL of media (Mediatech Inc. MEM supplemented with Glutamine, 10% FBS and Pen/Strep). DMSO and a suitable positive control compound, such as 80 μM GS-329467 or 10 μM 427346 was used for the 100% and 0% cell killing controls, respectively.
Hep2 cells (1.0×10^5 cells/ml) were prepared as above in batch to at least 40 mls excess of the number of sample plates (8 mls cell mix per plate) and infected with vendor supplied (ABI) RSV strain A2 to arrive at an MOI of 1:1000 (virus:cell #) or 1:3000 (vol virus:cell vol). Immediately after addition of virus, the RSV infected Hep2 cell suspension was added to each stamped 384-well plate at 20 μl per well using a uFlow dispenser, giving a final volume of 40 μL/well, each with 2000 infected cells. The plates were then incubated for 5 days at 37° C. and 5% CO2. Following incubation, the plates were equilibrated to room temperature in a biosafety cabinet hood for 1.5 hrs and 40 μL of Cell-Titer Glo viability reagent (Promega) was added to each well via uFlow. Following a 10-20 minute incubation, the plates were read using an EnVision or Victor Luminescence plate reader (Perkin-Elmer). The data was then uploaded and analyzed on the Bioinformatics portal under the RSV Cell Infectivity and 8-plate EC50-Hep2-384 or 8-plate EC50-Hep2-Envision protocols. […]
For `CS(=O)(=O)Nc1ccc(Cl)cc1C(=O)N1CCCC[C@H]1c1cc2nc(N3CCC3)cc(NCCN)n2n1` [Compound 20], the inhibition at 0.5 µM was found to be 100%.

Still in this experiment, the particulars now being: human respiratory syncytial virus, HEp-2; 0.5 μM compound; RSV-induced cytopathic effect in Hep2 cells; % inhibition calculated from fitted 4-parameter dose response curve, normalized to 0% and 100%; read-out: Percent inhibition at 0.5 μM.
For `CN(C)c1cc(N2CCOCC2)n2nc([C@@H]3CCCCN3C(=O)c3cc(Cl)ccc3NS(C)(=O)=O)cc2n1` [Compound 92], the inhibition at 0.5 µM was 98%.
Consider `Cc1cn2nc([C@@H]3CCCCN3C(=O)c3cc4ccccc4[nH]3)cc2nc1N1CC[C@H](N)C1` [Compound 17], for which the inhibition at 0.5 µM was 96%.
Same read-out and setting: the value for `COC(=O)C1CCN1c1nc2cc([C@@H]3CCCCN3C(=O)c3cc(Cl)ccc3NS(C)(=O)=O)nn2cc1C` (stereo partly drawn) [Compound 99] was 100%.
The same measure, in the same setting: the value for `Cc1cc(N(C)CCO)nc2cc([C@@H]3CCCCN3C(=O)c3cc(Cl)ccc3NS(C)(=O)=O)nn12` [Compound 60] was 87%.
Still for that read-out and setting: to `C#CC1CCN(c2nc3cc([C@@H]4CCCCN4C(=O)c4cc(Cl)ccc4NS(C)(=O)=O)nn3cc2C)C1` (stereo partly drawn) [Compound 41] belongs 100%; to `Cc1nc2cc([C@@H]3CCCCN3C(=O)c3cc(F)cc(Cl)c3NS(C)(=O)=O)nn2c(C)c1C` [Compound 32], 85%.
For `CC(C)OC(=O)Nc1ccc(Cl)cc1C(=O)N1CCCC[C@H]1c1cc2nc(N3CCC3)cc(N3CCNCC3)n2n1` [Compound 69], the inhibition at 0.5 µM was 99%.
`Cc1cn2nc([C@@H]3CCCCN3C(=O)c3cc(Cl)ccc3NS(C)(=O)=O)cc2nc1N1CCC1C` (stereo partly drawn) [Compound 40]: the inhibition at 0.5 µM is 100%.
The same measure, in the same setting: the value for `Cc1cc(C2CC2)nc2cc([C@@H]3CCCCN3C(=O)c3cc(Cl)cc(F)c3NS(C)(=O)=O)nn12` [Compound 29] was 90%.
On the same count and under the same terms, the value for `Cc1cccc(C(=O)N2CCCC[C@H]2c2cn3nc(N4CC[C@H](N)C4)ccc3n2)n1` [Compound 119] was 83%.
Still for that read-out and setting: to `Cc1cn2nc([C@@H]3CCCCN3C(=O)C(NS(C)(=O)=O)c3ccccc3Cl)cc2nc1N1CC[C@H](N)C1` (stereo partly drawn) [Compound 34] belongs 100%.
Consider `Cc1cn2nc([C@@H]3CCCCN3C(=O)[C@@](C)(NS(C)(=O)=O)c3ccccc3)cc2nc1N1CC[C@H](N)C1` [Compound 28], for which the inhibition at 0.5 µM is 100%.
Same read-out and setting: the value for `Cc1nc2cc([C@@H]3CCCCN3C(=O)c3cc(Cl)ccc3NS(C)(=O)=O)nn2c(N2CCC2)c1C` [Compound 78] was 99%; that for `Cc1cc(C)n2cc([C@@H]3CCCCN3C(=O)c3cc(Cl)ccc3NS(C)(=O)=O)nc2c1` [Compound 104] was 3%.
Still for that read-out and setting: to `CC(=O)Nc1ccc(C)c(Br)c1C(=O)N1CCCC[C@H]1c1cc2nc(C)c(C)c(C)n2n1` [Compound 83] belongs 100%; to `Cc1cc(C2CC2)nc2cc([C@@H]3CCCCN3C(=O)c3c(NS(C)(=O)=O)cccc3C(F)(F)F)nn12` [Compound 47], 99%; to `Cc1cn2nc([C@@H]3CCCCN3C(=O)C(NS(C)(=O)=O)c3ccccc3Cl)cc2nc1N1C[C@@H](C#N)[C@@H](O)C1` (stereo partly drawn) [Compound 22], 100%.
The same measure, in the same setting: the value for `Cc1cn2nc([C@@H]3CCCCN3C(=O)[C@](C)(NS(C)(=O)=O)c3ccccc3)cc2nc1N1CC[C@H](N)C1` [Compound 27] was 100%; that for `Cc1ccncc1C(=O)N1CCCC[C@H]1c1cc2nc(N3CC[C@H](N)C3)c(C)cn2n1` [Compound 7] was 100%.
In the case of `Cc1cc2nc([C@@H]3CCCCN3C(=O)C(NS(C)(=O)=O)c3ccccc3Br)cn2nc1N1CC[C@H](N)C1` (stereo partly drawn) [Compound 116], the inhibition at 0.5 µM is 100%.
On the same count and under the same terms, the value for `CS(=O)(=O)Nc1ccc(Cl)cc1C(=O)N1CCCC[C@H]1c1cc2nc(N3CCC3)cc(N3CC[C@@H](N)C3)n2n1` [Compound 71] was 100%; that for `Cc1ccc(NS(C)(=O)=O)c(C(=O)N2CCCC[C@H]2c2cc3nc(C)c(C)c(N4CCC4)n3n2)c1` [Compound 79] was 100%; that for `Cc1cn2nc([C@@H]3CCCCN3C(=O)c3cc(Cl)ccc3NS(C)(=O)=O)cc2nc1N1CCC[C@H](N)C1` [Compound 88] was 89%.
The same measure, in the same setting: to `Cc1cccc(NS(C)(=O)=O)c1C(=O)N1CCCC[C@H]1c1cc2nc(C3CC3)cc(C)n2n1` [Compound 45] belongs 100%.
Same read-out and setting: the value for `Cc1cn2nc([C@@H]3CCCCN3C(=O)c3cc(Cl)ccc3CN)cc2nc1N1CC[C@H](N)C1` [Compound 37] was 100%; that for `Cc1cn2nc([C@@H]3CCCCN3C(=O)c3cc(Cl)ccc3NS(C)(=O)=O)cc2nc1N1CC[C@H](CN)C1` [Compound 21] was 100%; that for `CC(C)OC(=O)Nc1ccc(Cl)cc1C(=O)N1CCCC[C@H]1c1cc2nc(N3CCC3)cc(N3CCN(C(=O)OC(C)(C)C)CC3)n2n1` [Compound 68] was 100%.
Consider `Cc1cn2nc([C@@H]3CCCCN3C(=O)C(NS(C)(=O)=O)c3ccccc3)cc2nc1N1CC[C@H](N)C1` (stereo partly drawn) [Compound 101], for which the inhibition at 0.5 µM was 100%.
The same measure, in the same setting: to `CN(C)[C@@H]1CCN(c2cc(N3CCC3)nc3cc([C@@H]4CCCCN4C(=O)c4cc(Cl)ccc4NS(C)(=O)=O)nn23)C1` [Compound 72] belongs 100%.
On the same count and under the same terms, to `Cc1ccc(Cl)cc1C(=O)N1CCCC[C@H]1c1cn2nc(N3CC[C@H](N)C3)ccc2n1` [Compound 121] belongs 100%; to `Cc1cc2nc([C@@H]3CCCCN3C(=O)c3cc(Cl)ccc3NS(C)(=O)=O)cn2nc1N1CC[C@H](N)C1` [Compound 107], 100%; to `CS(=O)(=O)Nc1ccc(Cl)cc1C(=O)N1CCCC[C@H]1c1cc2nc(N3CC[C@@H](N)C3)cc(N3CCOCC3)n2n1` [Compound 95], 99%.
On the same count and under the same terms, to `CS(=O)(=O)Nc1ccc(Cl)cc1C(=O)N1CCCC[C@H]1c1cc2nc(N3CC[C@H](O)C3)cc(N3CCOCC3)n2n1` [Compound 96] belongs 90%.
`Cc1cc(C2CC2)nc2cc([C@@H]3CCCCN3C(=O)c3cc(Cl)c(F)cc3NS(C)(=O)=O)nn12` [Compound 30]: the inhibition at 0.5 µM is 91%.
Still for that read-out and setting: to `CS(=O)(=O)Nc1ccc(Cl)cc1C(=O)N1CCCC[C@H]1c1cn2nc(N3CCC3)ccc2n1` [Compound 106] belongs 100%; to `Cc1cc(NS(C)(=O)=O)c(C(=O)N2CCCC[C@H]2c2cn3nc(N4CC[C@H](N)C4)c(C)cc3n2)s1` [Compound 114], 100%.
Regarding `Cc1ccc(NS(C)(=O)=O)c(C(=O)N2CCCC[C@H]2c2cc3nc(C)nc(C)n3n2)c1` [Compound 103], the inhibition at 0.5 µM was 27%.
Same read-out and setting: the value for `Cc1cn2nc([C@@H]3CCCCN3C(=O)c3ccccc3)cc2nc1N1CC[C@H](N)C1` [Compound 5] was 100%.
Regarding `Cc1ccc(NS(C)(=O)=O)c(C(=O)N2CCCC[C@H]2c2cc3nc(C)cc(C)n3n2)c1` [Compound 52], the inhibition at 0.5 µM is 99%.
Same read-out and setting: to `Cc1ccc(NS(C)(=O)=O)c(C(=O)N2CCCC[C@H]2c2cn3nc(N4CC[C@H](N)C4)c(C)cc3n2)c1` [Compound 115] belongs 100%; to `CS(=O)(=O)Nc1ccc(Cl)cc1C(=O)N1CCCC[C@H]1c1cc2nc(C3CCCC3)cc(N3CCOCC3)n2n1` [Compound 57], 93%.
For the compound `CS(=O)(=O)Nc1ccc(Cl)cc1C(=O)N1CCCC[C@H]1c1cn2nc(N3C[C@@H](C#N)[C@@H](O)C3)ccc2n1` [Compound 118], the inhibition at 0.5 µM was 100%.
Same read-out and setting: the value for `Cc1cn2nc([C@@H]3CCCCN3C(=O)c3n[nH]c4ccc(F)cc34)cc2nc1N1CC[C@H](N)C1` [Compound 15] was 92%; that for `CS(=O)(=O)Nc1ccc(Cl)cc1C(=O)N1CCCC[C@H]1c1cc2nc(N3CCC3)cc(N3CCNC(C#N)C3)n2n1` (stereo partly drawn) [Compound 43] was 100%.

Broadly, the inhibition is the drop in the measured response relative to a control, in per cent.
